Earlier results on 1 compound are cited in patent US20110237832A1, “SYNTHESIS OF HDAC INHIBITORS: TRICHOSTATIN A AND ANALOGUES” (University of Notre Dame du Lac, priority 2010, published 2011).

This data set relates to HDACs. As to conditions: read-out: inhibits the activity of HDACs, IC50 value; in human T cells.

One may read the IC50 as the midpoint of a concentration-inhibition curve. Take `CC(/C=C/C(=O)NO)=C\[C@@H](C)C(=O)c1ccc(N(C)C)cc1` [TSA, (+)-Trichostatin A]: the IC50 was 70 nM.
